According to patent publication US20100061943A1, “ORAL HEALTH COMPOSITION COMPRISING ALCHEMILLA VULGARIS” (MARS INCORPORATED, priority 2006, published 2010):

What was measured:
Assay type in all cases: cell-based, cats
anaerobes = assay: Feline plate biofilm assay (PBA): bacterial viable counts, anaerobes; settings: 48 hours biofilm, extracts at 500 μg/ml, vs no active control
Method: (§1) The assay requires fresh supragingival feline dental plaque and saliva for inoculation. The inoculum consists of pooled dental plaque and unfiltered saliva sampled from a group of 18 cats, varying in age, breed and oral health status.
(§2) The plaque and saliva were resuspended in artificial saliva to form the inoculum of approximately 10% plaque and 30% saliva.
(§3) The plate biofilm assay (PBA) utilises a 24 well plate format in which biofilms, representative of feline dental plaque, are grown on hydroxyapatite (HA) discs. Prior to being introduced to the 24 well assay plate, each HA disc is preconditioned for 2 hours in a solution of 50% filter sterilised feline saliva in artificial feline saliva. […] Each HA disc, with the exception of those being used for biomass quantification, is placed into 500 μl PBS and vortex mixed for 30 seconds to remove biofilm growth from the disc into solution. […] Biofilm-covered HA discs that are being used for biomass quantification are removed from the 24 well assay plate and used directly in the crystal violet assay.
(§4) Viable numbers of bacteria were quantified using Columbia blood agar plates supplemented with haemin and menadione. Aerobes were counted after incubation for 2 days and anaerobes, including black pigmenting colonies (BPC), were counted after incubation at appropriate conditions for 9 days. […]

[1] = test system: black pigmenting colonies (BPC); assay: Feline plate biofilm assay (PBA): bacterial viable counts, black pigmenting colonies; settings: 48 hours biofilm, extracts at 500 μg/ml, vs no active control
Method: as §1, §2, §3, §4

[2] = test system: biofilms representative of feline dental plaque; assay: Feline plate biofilm assay (PBA): biomass quantification (crystal violet assay); settings: 48 hours biofilm, OD595, extracts at 500 μg/ml, vs no active control
Method: as §1, §2
as §3, with “saliva. The preconditioning step stimulates the formation of a salivary pellicle on the HA disc surface.” for “saliva.”
The total amount of biofilm grown on the HA discs was quantified using the crystal violet staining method. Biomass was represented as being directly proportional to the OD reading at 595 nm (OD595) of the samples compared to controls. […]

Aerobes = assay: Feline plate biofilm assay (PBA): bacterial viable counts, aerobes; settings: 48 hours biofilm, extracts at 500 μg/ml, vs no active control
Method: as §1, §2, §3, §4

[3] = test system: Trypsin-like protease activity; assay: Feline plate biofilm assay (PBA): protease activity (liquid BAPNA assay); settings: 48 hours biofilm, extracts at 500 μg/ml, vs no active control
Method: as §1, §2
as §3, with “saliva. The preconditioning step stimulates the formation of a salivary pellicle on the HA disc surface.” for “saliva.”
Trypsin-like protease activity was measured using the liquid BAPNA assay, a colourimetric assay in which the amount of trypsin present in a sample is directly proportional to the intensity of the colour developed. […]

SMILES: [H]/N=C(\N/C(=N/[H])NCCCCCCNC(=N)NC(=N)Nc1ccc(Cl)cc1)Nc1ccc(Cl)cc1 [Chlorhexidine, chlorhexidine]
- Anaerobe (Log 10 reduction) (anaerobes): 2.16 Log 10
- BPC (Log 10 reduction) [1]: 4.86 Log 10
- Biomass (% reduction) [2]: 79.0%
- Aerobe (Log 10 reduction) (Aerobes): 1.91 Log 10
- Protease (% reduction) [3]: 90.0%
